{
  "source": "patent US20120295804A1",
  "about": "“Compositions and Methods for Diagnosis and Treatment of Breast Cancer” (University of Medicine and Dentistry of New Jersey, priority 2011, published 2012)",
  "key": {"Oct4^− BCCs": {"system": "Oct4^− BCCs", "experiment": "Chemical induction of GFP in Oct4(−) breast cancer cells stably transfected with pEGFP1-Oct3/4", "assay_type": "cell-based", "conditions": "2.7 μM BIX01294, 24 h, pEGFP1-Oct3/4 stable transfectants", "source_text": "Therefore, different BCC subsets were selected based on Oct4 expression. To do this, MDA-MB-231 and T47D were stably transfected with an Oct4 reporter vector, pEGFP1-Oct3/4 (Gerrard, L. et al. 2005. Stem Cells 23:124-133). The transfected cells were sorted into three subsets based on GFP expression levels. The top 5% of GFP expressers were designated Oct4^hi and the lowest 5%, Oct4^−. The population between the extremes were designated Oct4^med. GFP intensities were validated for correlation with Oct4 protein by intracellular flow cytometry of pEGFP1-Oct3/4 transfectants. The Oct4^− population was similar to isotype control. In contrast, the mean fluorescence intensity (MFI) of cells labeled with APC-anti-Oct4 correlated with GFP intensities.\nAt 40-50% confluence stably transfected BCCs were treated with G9a histone methyltransferase inhibitor, [2-(Hexahydro-4-methyl-1H-1,4-diazepin-1-yl)-6,7-dimethoxy-N-[1-(phenylmethyl)-4-piperidinyl]4-quinazolinamine] (BIX01294, Enzo Life Sciences, Farmingdale, N.Y.). BIX01294 and similar chemicals can induce Oct4 in negative cells, in reprogramming (Huangfu, D. et al. 2008. Nat. Biotech. 26:795-797; Shi, Y. et al. 2008. Cell Stem Cell 3:568-574). Cells were treated with 2.7 μM BIX01294. After 24 h, images were taken by fluorescence microscopy. Control cells were untreated or treated with vehicle (dimethyl sulphoxide, DMSO)."}, "[1]": {"system": "GJIC between Oct4^hi BCCs and BM stroma", "experiment": "GJIC in co-cultures of Oct4^hi BCCs and bone marrow stroma with or without 1-octanol", "assay_type": "cell-based", "conditions": "300 μM 1-octanol", "source_text": "Connexin (Cx) expression was studied using plasma membrane extracts from unsorted, Oct4^hi, Oct4^med and Oct4^− BCCs. […] It was next determined if the higher expression of connexins in BCCs could provide the cells with an advantage to form GJIC, in co-cultures of Oct4^hi BCCs and BM stroma. […] As expected, in the presence of the GJIC inhibitor 1-octanol, the intensity of Cx43 was reduced. GJIC was studied via dye transfer between BCCs and stroma using CFDA-SE-labeled Oct4^hi BCCs, as described previously (Lim, P. K. et al. 2011. Cancer Res. 71:1550-1560). Dye transfer into stroma was blunted by 1-octanol. Finally, the total number of BCCs showing dye transfer was counted in order to quantify functional GJIC.\nGJIC was assessed by CFDA-SE dye exchange from BCCs to stroma in co-cultures, as described previously (Ramkisson, S. H. et al. 2007. Cancer Res. 67:1653-1659). Briefly, BCCs and stroma were co-cultured at equal ratios in α-MEM with 10% FCS, in the presence or absence of 300 μM 1-octanol. CFDA-SE dye transfer was assessed on an EVOS fl fluorescence imager (AMG Micro, Bothell, Wash.)."}, "unsorted BCCs": {"system": "unsorted BCCs", "experiment": "Carboplatin response of subcutaneous tumors from unsorted BCCs", "assay_type": "in vivo, nude BALB/c mice", "conditions": "50 mg/kg i.p. twice at 3-day intervals", "experimental": "(§1) Both triple-negative MDA-MB-231 and triple-positive T47D are expected to respond to carboplatin treatment, a drug which acts through a mechanism independent of hormone receptor status. Thus, the responsiveness to carboplatin was investigated in Oct4^hi cells from both cells lines. Tumors were injected into the dorsal flanks of mice as before. When the tumors were 0.5 cm^3 the mice were injected with carboplatin intra-peritoneally (i.p.).\n(§2) Serial passage of different BCC subsets was performed by injecting BCCs in dorsal flanks of mice. The cells were resuspended in PBS and then mixed with matrigel at 1:1 ratio in 0.2 mL total volume. The cells were injected at different numbers, but in a constant volume to study dose effects on the time for tumor growth. Parallel analyses were performed with unsorted BCCs. Tumors were monitored daily for 30 days and measured in two dimensions with a caliper and volume was calculated using the following: formula V=πr^2h, where r=radius and h=height. Subsequent passages occurred by sorting the same cell subset (top 5% highest GFP) and then repeating the injection as above.\n(§3) Carboplatin responses to tumor growth were assessed by subcutaneous injection of 200 Oct4^hi BCCs in matrigel in the dorsal flank. For unsorted BCCs, 10^6 cells were injected. […] Tumor sizes were recorded every 2 days with a caliper, as described for serial passage."}, "Oct4^hi BCCs": {"system": "Oct4^hi BCCs", "experiment": "Carboplatin response of subcutaneous tumors from Oct4^hi BCCs", "assay_type": "in vivo, nude BALB/c mice", "conditions": "50 mg/kg i.p. twice at 3-day intervals, same tumor size as unsorted BCCs", "experimental": "as §1, §2, §3"}, "Oct4^hi MDA-MB-231": {"system": "Oct4^hi MDA-MB-231", "experiment": "Carboplatin resistance of Oct4^hi BCCs in bone marrow (femur endosteum)", "assay_type": "in vivo, mice", "conditions": "10^3 Oct4^hi MDA-MB-231 i.v.; carboplatin 50 mg/kg i.p. at 3-day intervals; femurs examined one week after second injection", "experimental": "It was then determined if Oct4^hi BCCs, at sites of distant metastasis, such as bone marrow, could resist carboplatin treatment. Bone marrow was selected for study because it is well-established that BCCs can attain dormancy in this organ, close to the endosteum (Lim, P. K. et al. 2011. Cancer Res. 71:1550-1560; Rao, G. et al. 2004. Cancer Res. 64:2874-2881). Mice were injected intravenously with 10^3 Oct4^hi MDA-MB-231. After 1 day, carboplatin was injected i.p. at 3-day intervals. One week after the second injection, femurs were decalcified, processed, and examined for GFP^+ cells. […] Similar cells were not detected in the cellular regions of the marrow, which were flushed from femurs prior to the analyses of the endosteal regions. Mice were injected intravenously with 10^3 BCCs, stably transfected with pEGFP1-Oct3/4. After 24 hours, mice were injected i.p. with carboplatin (50 mg/kg), followed by a second dose after 3 days. One week after the final injection of carboplatin, mice were euthanized, and the femurs were removed. Femurs were rinsed and the cells flushed using a 27 gauge needle attached to a syringe with PBS to remove the cells within the central region of the cavity. After this, the femurs were fixed overnight in 4% formaldehyde at 4° C. […] Slides were examined with an EVOS fl fluorescence imager."}, "[2]": {"system": "Oct4^hi BCCs (MDA-MB-231 and T47D)", "experiment": "Hoechst 33342 dye exclusion (side population) in the presence or absence of verapamil", "assay_type": "cell-based", "conditions": "400 μM verapamil, 5 μg/mL Hoechst 33342, Oct4^hi population", "experimental": "FIG. 7 depicts results of experiments of dye retention in BCC subsets. Oct4^hi BCCs were labeled with Hoechst 33342 (5 μg/mL), in the presence or absence of 400 μM verapamil. Propidium iodide-negative cells were gated based on GFP intensity. The cells were analyzed on Hoechst Blue and Hoechst Red filters. Side population cells that were Hoechst negative (circled) were compared in the two experimental conditions. The figure represents five different experiments, with MDA-MB-231 and T47D.\nExperiments were then performed to determine if drug resistance genes played any role in the differentiation of BCC subsets. […] Oct4^hi cells were incubated in the presence or absence of verapamil, which inhibits multi-drug resistance transporters, and then dye exclusion was tested in four different experiments. Oct4^hi, Oct4^med and Oct4^− cells were tested. […] Only few Oct4^med (FIG. 8) and Oct4^− cells (FIG. 9) excluded the dye.\nSide population analysis of the pEGFP1-Oct4 stable transfectants was performed using the LSR II (BD Biosciences). […] Optimal titrations and conditions were determined to be 5 μg/ml Hoechst 33342 (90 min incubation at 37° C.) and 400 μM verapamil (10 min pre-incubation). […] The cells between the two extremes were also analyzed (Oct4^med)."}},
  "data": [
    {"compound": "COc1cc2nc(N3CCCN(C)CC3)nc(NC3CCN(Cc4ccccc4)CC3)c2cc1OC", "note": "[BIX01294, 2-(Hexahydro-4-methyl-1H-1,4-diazepin-1-yl)-6,7-dimethoxy-N-[1-(phenylmethyl)-4-piperidinyl]4-quinazolinamine]", "values": [
      {"measurement": "Oct4^− BCCs reverted to high GFP expression", "setting": "Oct4^− BCCs", "result": "92.5%±4.4%"}
    ]},
    {"compound": "CCCCCCCCO", "note": "[1-octanol]", "values": [
      {"measurement": "CFDA-SE dye transfer into stroma", "setting": "[1]; CFDA-SE-labeled Oct4^hi BCCs", "result": "blunted"},
      {"measurement": "intensity of Cx43 immunofluorescence", "setting": "[1]; co-cultures of Oct4^hi BCCs and BM stroma", "result": "reduced"}
    ]},
    {"compound": "N.N.O=C([O-])C1(C(=O)[O-])CCC1.[Pt+2]", "note": "[carboplatin]", "values": [
      {"measurement": "tumors eight days after treatment with carboplatin", "setting": "unsorted BCCs; mice injected with unsorted BCCs", "result": "tumors were undetectable"},
      {"measurement": "tumor change after the second injection of carboplatin", "setting": "unsorted BCCs; tumors 0.5 cm^3 at start, vs Oct4^hi and untreated unsorted BCC", "result": "significant (p<0.05) reduction"},
      {"measurement": "tumors after carboplatin treatment", "setting": "Oct4^hi BCCs", "result": "retained palpable tumors"},
      {"measurement": "GFP^+ BCCs in femur after carboplatin", "setting": "Oct4^hi MDA-MB-231", "result": "drug resistance in GFP^+ BCCs close to the endosteum of bone marrow"}
    ]},
    {"compound": "COc1ccc(CCN(C)CCCC(C#N)(c2ccc(OC)c(OC)c2)C(C)C)cc1OC", "note": "(centres unmarked) [verapamil]", "values": [
      {"measurement": "difference in Hoechst dye retention with verapamil", "setting": "[2]", "result": 3, "unit": "fold"}
    ]}
  ]
}
